# Source: patent publication US20250281498A1, “FUSED AMINO PYRIMIDINE COMPOUNDS FOR TREATMENT OF SYNUCLEINOPATHIES AND TDP-43 PROTEINOPATHIES” (Ovid Therapeutics Inc., priority 2024, published 2025)
# Key:
# [1] = design: species or system mice; conditions: in vivo
# NKCC1 = biological target: T1, NKCC1 (Homo sapiens, UniProt P55011); test: TI+ flux assay, HEK-293 cells expressing NKCC1; format: cell-based; conditions: read-out: concentration at which effects on NKCC1 were seen (EC50 chart FIG. 1G)
# T1 construct: expressed in transfected cells; host or cells: HEK-293
# T1 sequence (P55011 1-1212): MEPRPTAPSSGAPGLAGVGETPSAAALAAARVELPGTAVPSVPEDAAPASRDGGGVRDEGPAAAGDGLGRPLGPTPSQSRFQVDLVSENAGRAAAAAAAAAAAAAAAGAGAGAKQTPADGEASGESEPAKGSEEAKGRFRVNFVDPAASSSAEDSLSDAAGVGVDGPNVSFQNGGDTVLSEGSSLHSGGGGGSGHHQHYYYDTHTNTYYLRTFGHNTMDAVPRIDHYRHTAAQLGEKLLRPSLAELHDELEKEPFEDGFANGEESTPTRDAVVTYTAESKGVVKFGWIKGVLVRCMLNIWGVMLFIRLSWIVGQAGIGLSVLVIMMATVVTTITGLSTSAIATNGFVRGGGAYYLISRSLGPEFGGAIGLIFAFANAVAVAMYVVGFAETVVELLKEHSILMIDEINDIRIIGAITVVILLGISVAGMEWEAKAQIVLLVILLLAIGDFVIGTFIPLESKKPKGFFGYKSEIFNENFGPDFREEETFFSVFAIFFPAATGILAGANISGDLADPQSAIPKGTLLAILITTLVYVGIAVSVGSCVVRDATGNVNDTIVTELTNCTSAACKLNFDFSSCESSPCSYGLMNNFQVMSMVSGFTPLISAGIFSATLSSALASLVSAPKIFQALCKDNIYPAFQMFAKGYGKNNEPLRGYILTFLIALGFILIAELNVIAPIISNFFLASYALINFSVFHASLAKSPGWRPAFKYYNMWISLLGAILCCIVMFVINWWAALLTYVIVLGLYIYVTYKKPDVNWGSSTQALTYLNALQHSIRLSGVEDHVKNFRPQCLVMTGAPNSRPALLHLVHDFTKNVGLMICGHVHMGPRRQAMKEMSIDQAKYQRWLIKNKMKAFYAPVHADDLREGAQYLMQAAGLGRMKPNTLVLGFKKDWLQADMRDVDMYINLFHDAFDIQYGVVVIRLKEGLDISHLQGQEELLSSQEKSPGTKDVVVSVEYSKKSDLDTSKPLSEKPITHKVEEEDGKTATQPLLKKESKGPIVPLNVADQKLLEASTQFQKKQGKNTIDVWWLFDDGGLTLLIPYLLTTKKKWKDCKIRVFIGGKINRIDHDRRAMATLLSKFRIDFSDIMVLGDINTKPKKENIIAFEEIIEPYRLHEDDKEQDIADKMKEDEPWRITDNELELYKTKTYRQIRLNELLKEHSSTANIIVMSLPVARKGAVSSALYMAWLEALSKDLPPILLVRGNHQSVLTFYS
# Procedure: FLIPR TI Flux assay. HEK-293 cells were washed with HBSS, and then incubated with loading buffer containing TI sensitive fluorescent dye (https://www.moleculardevices.com), 20 μM bumetanide 20 μM ouabain and 2.5 mM probenecid for 1 h at room temperature (RT) under control conditions or with drugs in the dark using a FlexStation 3 microplate reader (Molecular Devices) and imaged […] for 30 min. Stimulus buffer was added containing 5 mM K^+/0.5 mM Tl^+ and cells were imaged every 1.5 over a 190 second time course The initial rate Tl^+ uptake (Relative Fluorescence Units (RFU) per second) was determined following addition of the stimulus buffer as outlined previously (Conway et al., 2017, supra) (Lee et al., 2022, supra).
# Several studies have shown that the activity and plasma membrane accumulation of KCC2 is potentiated via phosphorylation of S940, a process mediated by the activity of protein kinase C and protein phosphatase 1 (Lee et al., 2011, supra; Lee et al., J Biol Chem 282, 29777-29784 (2007); Moore et al., Proc. Natl. Acad. Sci. U.S.A. 115, 10166-10171 (2018); Moore et al., Trends Neurosci. 40, 555-571 (2017); Silayeva et al., Proc. Natl. Acad. Sci. U.S.A. 112, 3523-3528 (2015)). […] Compared to KCC2, effects on KCC3, KCC4, and NKCC1 were only seen at concentrations more than 35-fold that of KCC2 (>100 μM) (FIG. 1G).
compound,measurement,setting,value
"C[C@@H]1CN(c2nc3c(c(Nc4ccc(C5CCCCC5)cc4)n2)COC3)CCO1 [Compound A, (R)—N-(4-cyclohexylphenyl)-2-(2-methylmorpholino)-5,7-dihydrofuro[3,4-d]pyrimidin-4-amine]",gross effects on mouse behavior in the open field,[1],no gross effects on mouse behavior
same,total distance traveled in open field,"[1]; mouse, sc, 50 mg/kg",6134.2±235.3 cm
same,EC50,NKCC1,> 100 µM
